{"source": "patent US8343536B2", "about": "“Biofilm-inhibiting medical products” (Cook Biotech Incorporated, priority 2007, dated 2013)", "assay_type_in_all_cases": "cell-based", "key": {"[1]": {"test_system": "S. aureus (ATCC #25983)", "experiment": "Zone-of-inhibition after ethylene oxide or E-beam sterilization of coated SIS discs (Example 4)", "procedure": "BisEDT was obtained from Microbion, Inc. as previously described. Small intestinal submucosa (SIS) was obtained and processed into 4-layer lyophilized sheets as described in Example 1. The sheets were subsequently cut into 15 mm discs (˜1.76 cm^2) using a disc punch. BisEDT was resuspended in dimethyl sulfoxide (DMSO) and diluted to appropriate concentrations for coating. Discs were coated with the BisEDT solution at a final concentration of 0.35 μg/μl using 50 μl of the solution per disc for a final concentration of 10 μg/cm^2. The discs were subsequently placed in a lyophilizer overnight to remove the DMSO solvent. For the ethylene oxide sterilization compatibility experiment, 6 discs were coated with 10 μg/cm^2 BisEDT and packaged into 2 separate tyvek pouches with 3 discs per pouch. One pouch was placed in a drawer until use and left non-sterile and the other pouch was sterilized with low temperature ethylene oxide sterilization. For the E-beam sterilization, essentially the same process was performed except the discs were packaged in foil pouches and the samples were subjected to E-beam sterilization with a dose of ˜25 kGy. S. aureus (ATCC #25983) was used as the bacteria for this experiment. Bacteria was grown in Tryptic Soy Broth for 16-24 hours before placing a lawn on Tryptic Soy Agar in 100 mm Petri dishes. […]"}, "[2]": {"test_system": "C. albicans (ATCC #10231)", "experiment": "Anti-fungal zone-of-inhibition / growth inhibition, coated SIS discs (Example 5)", "conditions": "100 μg/cm^2 on SIS disc, ~48 hours", "procedure": "(§1) BisEDT was obtained from Microbion, Inc. as previously described. Small intestinal submucosa (SIS) was obtained and processed into 4-layer lyophilized sheets as described in Example 1. The sheets were subsequently cut into 15 mm discs (˜1.76 cm^2) using a disc punch. BisEDT was resuspended in dimethyl sulfoxide (DMSO) and diluted to appropriate concentrations for coating. Discs were coated with the BisEDT solution at a final concentration of 3.5 μg/μl using 50 μl of the solution per disc for a final concentration of 100 μg/cm^2. The discs were subsequently placed in a lyophilizer overnight to remove the DMSO solvent. A total of 6 coated discs were made—3 each for the two microorganisms investigated. These were compared against 3 uncoated controls discs cut from the same lot of SIS for each microorganism. C. albicans (ATCC #10231) and A. niger(ATCC #16404) were plated on Rose Bengal Chloramphenicol (RBC) in Petri dishes.\n(§2) The experiment consisted of a total of […] (3 BisEDT 100 μg/cm^2 coated, 3 uncoated controls) for each fungus. A lawn of either C. albicans or A. niger was swabbed onto the RBC plates. Each disc was rehydrated in sterile saline for ˜5 minutes then placed approximately in the center of the plate. Plates were incubated inverted for ˜48 hours for C. albicans or 5 and 8 days for A. niger at which time pictures were taken with a digital camera. Zones-of-inhibition or growth inhibition was compared visually between groups."}, "[3]": {"test_system": "A. niger(ATCC #16404)", "experiment": "Anti-fungal zone-of-inhibition / growth inhibition, coated SIS discs (Example 5)", "conditions": "100 μg/cm^2 on SIS disc", "procedure": "as §1, §2"}, "[4]": {"test_system": "S. aureus (ATCC #25983)", "experiment": "Zone-of-inhibition after various rehydration times of coated SIS discs (Example 3)", "procedure": "BisEDT (Molar ratio 1:1.5) and BisBAL (1:1.5) (50 mg each) were obtained from Microbion, Inc. Small intestinal submucosa (SIS) was obtained and processed into 4-layer lyophilized sheets as described in Example 1. The sheets were subsequently cut into 15 mm discs (˜1.76 cm^2) using a disc punch. Bismuth thiols were resuspended in dimethyl sulfoxide (DMSO) and diluted to appropriate concentrations for coating. Discs were coated with the bismuth thiol solutions at a final concentration of 0.35 μg/μl using 50 μl of the solution per disc for a final concentration of 10 μg/cm^2. The discs were subsequently placed in a lyophilizer overnight to remove the DMSO solvent. S. aureus (ATCC #25983) was used as the bacteria for this experiment. Bacteria was grown in Tryptic Soy Broth for 16-24 hours before placing a lawn on Tryptic Soy Agar in 100 mm Petri dishes.\nThirty six samples were tested in total (2 BT*n=3→6*6 rehydration times→36). A lawn of S. aureus was swabbed onto the Tryptic Soy Agar. For the 0 rehydration time point, the bismuth thiol coated disc was placed approximately in the center of the plate and rehydrated with ˜50 μl of sterile saline. Other rehydration times were varied at 5, 10, 20, 30, or 60 minutes. For this, the samples were placed in sterile saline and a timer set for each time. At the appropriate time, samples were removed from the saline and placed approximately in the center of the plate. Plates were incubated inverted for 24 hours at which time pictures were taken with a digital camera. Zones-of-inhibition were compared visually between groups."}, "[5]": {"test_system": "S. aureus (ATCC #25983)", "experiment": "Zone-of-inhibition measured by image analysis, coated SIS discs (Example 2)", "conditions": "10 μg/cm^2 on SIS disc, 24 hours, n=3", "procedure": "(§3) BisEDT (Molar ratio 1:1.5), BisBAL (1:1.5), and BisERY (1:1.5) (50 mg each) were obtained from Microbion, Inc. Small intestinal submucosa (SIS) was obtained and processed into 4-layer lyophilized sheets as described in Example 1. The sheets were subsequently cut into 15 mm discs (˜1.76 cm^2) using a disc punch. Bismuth thiols were resuspended in dimethyl sulfoxide (DMSO) and diluted to 0.35 μg/μl for coating. Discs were coated with the bismuth thiol solutions 50 μl of the appropriate solution per disc for a final concentration 10 μg/cm^2 (0.35 μg/μl*50 μl=17.5 μg/1.76 cm^2=10 μg/cm^2). The discs were subsequently placed in a lyophilizer overnight to remove the DMSO solvent. Control discs were prepared using 50 μl of DMSO without a bismuth thiol preparation. 3 bacteria were used for this experiment: S. aureus (ATCC #25983), P. aeruginosa (ATCC #27853), and E. coli (ATCC #25922). Bacteria was grown in Tryptic Soy Broth for 16-24 hours before placing a lawn on Tryptic Soy Agar in 100 mm Petri dishes.\n(§4) Thirty samples were tested in total (3 bismuth thiol preparations @ n=3→9+1 control=10×3 bacteria=30). A lawn of one of the three bacteria investigated was swabbed onto the Tryptic Soy Agar. The bismuth thiol coated disc was rehydrated for ˜5 minutes in sterile saline and placed approximately in the center of the plate. Plates were incubated inverted for 24 hours at which time pictures were taken with a digital camera. Zones-of-inhibition were measured using image analysis software (Spot RT) by determining the distance of bacterial growth inhibition from the disc edge."}, "[6]": {"test_system": "E. coli (ATCC #25922)", "experiment": "Zone-of-inhibition measured by image analysis, coated SIS discs (Example 2)", "conditions": "10 μg/cm^2 on SIS disc, 24 hours, n=3", "procedure": "as §3, §4"}}, "data": [{"substance": "bismuth-1,2-ethanedithiol [BisEDT]", "values": [{"measurement": "Zone-of-inhibition, visual", "setting": "[1]; S. aureus, 10 μg/cm^2 on SIS disc, sterilized (ethylene oxide or E-beam ~25 kGy) and non-sterile", "value": "effectiveness at creating a zone-of-inhibition"}, {"measurement": "Compatibility with sterilization technique", "setting": "[1]; ethylene oxide vs E-beam (~25 kGy), zone-of-inhibition against S. aureus compared visually", "value": "E-beam sterilization exhibited greater compatibility with BisEDT than ethylene oxide sterilization"}, {"measurement": "Zone-of-inhibition from the disc edge", "setting": "[2]", "value": "~1", "unit": "mm"}, {"measurement": "Mold growth on coated disc", "setting": "[3]; 5 days", "value": "able to grow up to the disc edge but not on the BisEDT coated disc"}, {"measurement": "Mold growth on coated disc", "setting": "[3]; eight day time point", "value": "still unable to grow on the BisEDT coated discs"}, {"measurement": "Effect of rehydration time on zone-of-inhibition, visual comparison", "setting": "[4]; 10 μg/cm^2, rehydration 0-60 minutes in sterile saline", "value": "no visual differences between the rehydration time points"}, {"measurement": "Zone-of-inhibition, visual", "setting": "[4]; 10 μg/cm^2 on SIS disc, rehydration 0, 5, 10, 20, 30 or 60 minutes", "value": "significant effectiveness in creating a zone-of-inhibition"}, {"measurement": "Zone-of-inhibition, distance of bacterial growth inhibition from the disc edge", "setting": "[5]", "value": 6.83}, {"measurement": "Zone-of-inhibition, distance of bacterial growth inhibition from the disc edge", "setting": "[6]", "value": 1.28}]}]}
